According to patent publication US20250304705A1, “BIOTIN ORTHOGONAL STREPTAVIDIN SYSTEM” (UNIVERSITY OF UTAH RESEARCH FOUNDATION, priority 2022, published 2025):

What was measured:
D-SA = experiment: binding of D-biotin to D-SA, by mirror-image symmetry from L-biotin/L-SA ITC; details: orthogonality, inferred by mirror-image symmetry
From the text: As detailed herein, mirror-image SA and biotin (D-SA/L-biotin) offer an elegant solution to circumvent the limitations encountered with L-SA/D-biotin systems. For example, D-proteins are inert to L-proteases and therefore cannot be digested for MHC presentation to the immune system. […] Therefore, it is proposed that D-SA/L-biotin can be used as a biotin orthogonal streptaviding system (BOSS). Without wishing to be bound by theory, it is hypothesized that the orthogonality of BOSS, along with D-SA's low immunogenicity, will overcome the limitations of natural SA/biotin.
First, a control isothermal titration calorimetry (ITC) experiment was performed. […] This titration data was fit using Origin software to calculate binding stoichiometry (N=0.97±0.003 sites) and enthalpy (ΔH=−27.72±0.18 kcal/mol), as shown in FIG. 2A.

[1] = target: T1, L-SA (recombinant SA, Novus Biologicals) (Streptomyces avidinii, UniProt P22629); experiment: isothermal titration calorimetry (ITC), biotin enantiomer titrated into recombinant L-SA; assay type: binding; details: fit using Origin software
T1 construct: purchased Novus Biologicals
Experimental: First, a control isothermal titration calorimetry (ITC) experiment was performed.

T1 sequence (P22629 37-163): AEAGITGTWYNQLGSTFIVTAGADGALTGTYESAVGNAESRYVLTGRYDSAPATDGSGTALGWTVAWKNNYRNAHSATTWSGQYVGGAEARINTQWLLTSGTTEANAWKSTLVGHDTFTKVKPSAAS

## O=C(O)CCCC[C@@H]1SC[C@@H]2NC(=O)N[C@@H]21 [D-biotin]
D-SA
  binding to D-SA: minimal binding
[1]
  enthalpy (ΔH): -27.72 ± 0.18 kcal/mol
